Test results reported in patent US20050245399A1, “Pyrazole derivatives as herbicidal compositions containing them” (ISHIHARA SANGYO KAISHA, LTD., priority 2004, published 2005).

Legend:
Format in all cases: in vivo
[1] = test system: velvetleaf (Abutilon theophrasti), ABUTH; experiment: Test Example 2 post-emergence (foliage treatment) herbicidal activity, ABUTH; conditions: 63 g a.i./ha
Outline: (§1)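 Foliar spray of formulated compound (500 L/ha dilution water, 0.1% v/v spreader) onto young potted plants at defined leaf stages. Scored 0-100% by visual inspection 20-23 d post-spray.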

[2] = test system: wheat (Triticum aestivum L.): TRZAX; experiment: Test Example 1 pre-emergence herbicidal activity, TRZAX; conditions: Rate 63 g a.i./ha, visually observed 20th to 23rd day after application
Outline: (§2)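 Read-out: visual growth control (%, 0–100, 100 = complete kill) assessed 20 to 23 days post-treatment. Compound was applied pre-emergence by small sprayer, one day after sowing into upland soil pots, in 500 L/ha water.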

[3] = test system: rice (Oryza sativa L.), ORYSA; experiment: Test Example 2 post-emergence (foliage treatment) herbicidal activity, ORYSA; conditions: 63 g a.i./ha
Outline: (§3)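 Post-emergence, upland soil pots; leaf stage at spray: ECHCG 1.1-2.1 / DIGSA 1.0-2.0 / AMARE 0.1-1.5 / ORYSA 1.0-2. WP or EC formulation, set active ingredient rate, 500 L/ha water + 0.1% v/v spreader. Visual rating at d20-23, % control 0-100.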

[4] = test system: green foxtail (Setaria viridis L.), SETVI; experiment: Test Example 2 post-emergence (foliage treatment) herbicidal activity, SETVI; conditions: 63 g a.i./ha
Outline: as §1

[5] = test system: wheat (Triticum aestivum L.), TRZAX; experiment: Test Example 2 post-emergence (foliage treatment) herbicidal activity, TRZAX; conditions: 63 g a.i./ha
Outline: as §1

[6] = test system: rice (Oryza sativa L.): ORYSA; experiment: Test Example 1 pre-emergence herbicidal activity, ORYSA; conditions: Rate 63 g a.i./ha, visually observed 20th to 23rd day after application
Outline: as §2

[7] = test system: soybean (Glycine max Merr.): GLXMA; experiment: Test Example 1 pre-emergence herbicidal activity, GLXMA; conditions: Rate 63 g a.i./ha, visually observed 20th to 23rd day after application
Outline: as §2

[8] = test system: prickly sida (Sida spinosa L.): SEDSP; experiment: Test Example 1 pre-emergence herbicidal activity, SIDSP; conditions: Rate 63 g a.i./ha, visually observed 20th to 23rd day after application
Outline: as §2

[9] = test system: redroot pigweed (Amaranthus retroflexus L.), AMARE; experiment: Test Example 2 post-emergence (foliage treatment) herbicidal activity, AMARE; conditions: 63 g a.i./ha
Outline: as §3

[10] = test system: green foxtail (Setaria viridis L.): SETVI; experiment: Test Example 1 pre-emergence herbicidal activity, SETVI; conditions: Rate 63 g a.i./ha, visually observed 20th to 23rd day after application
Outline: as §2

[11] = test system: barnyardgrass (Echinochloa crus-galli L.): ECHCG; experiment: Test Example 1 pre-emergence herbicidal activity, ECHCG; conditions: Rate 63 g a.i./ha, visually observed 20th to 23rd day after application
Outline: as §2

[12] = test system: corn (Zea mays L.): ZEAMX; experiment: Test Example 1 pre-emergence herbicidal activity, ZEAMX; conditions: Rate 63 g a.i./ha, visually observed 20th to 23rd day after application
Outline: as §2

[13] = test system: velvetleaf (Abutilon theophrasti): ABUTH; experiment: Test Example 1 pre-emergence herbicidal activity, ABUTH; conditions: Rate 63 g a.i./ha, visually observed 20th to 23rd day after application
Outline: as §2

[14] = test system: redroot pigweed (Amaranthus retroflexus L.): AMARE; experiment: Test Example 1 pre-emergence herbicidal activity, AMARE; conditions: Rate 63 g a.i./ha, visually observed 20th to 23rd day after application
Outline: as §2

[15] = test system: prickly sida (Sida spinosa L.), SIDSP; experiment: Test Example 2 post-emergence (foliage treatment) herbicidal activity, SIDSP; conditions: 63 g a.i./ha
Outline: as §1

[16] = test system: japanese bulrush (Scirpus juncoides: SCPJO); experiment: Test Example 3 water application herbicidal activity (paddy), SCPJO; conditions: 63 g a.i./ha, water application under submerged condition at 0.5 leaf stage, visually observed 14th day after application; 0 = untreated control, 100 = complete kill
Outline: (§4)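 Flooded paddy-soil pots in greenhouse; ECHOR and SCPJO sown, SAGPY tubers planted a day later, compound applied into 3–4 cm water at weeds' 0.5-leaf stage. Rice transplanted at 2-leaf stage, treated day 4 after transplanting. Visual growth control 0–100% at 14 days (weeds) and 21 days (rice) after application.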

[17] = test system: barnyardgrass (Echinochloa crus-galli L.), ECHCG; experiment: Test Example 2 post-emergence (foliage treatment) herbicidal activity, ECHCG; conditions: 63 g a.i./ha
Outline: as §3

[18] = test system: corn (Zea mays L.), ZEAMX; experiment: Test Example 2 post-emergence (foliage treatment) herbicidal activity, ZEAMX; conditions: 63 g a.i./ha
Outline: as §1

[19] = test system: japanese ribbon wapato (Sagittaria pygmaea: SA GPY); experiment: Test Example 3 water application herbicidal activity (paddy), SAGPY; conditions: 63 g a.i./ha, water application under submerged condition, tubers planted, visually observed 14th day after application; 0 = untreated control, 100 = complete kill
Outline: as §4

[20] = test system: crabgrass (Digitaria sanguinalis L.), DIGSA; experiment: Test Example 2 post-emergence (foliage treatment) herbicidal activity, DIGSA; conditions: 63 g a.i./ha
Outline: as §3

[21] = test system: rice (Oryza sativa L.: ORYSA); experiment: Test Example 3 water application herbicidal activity (paddy), transplanted rice ORYSA; conditions: 63 g a.i./ha, water application 4th day after transplantation of 2 leaf stage rice, visually observed 21st day after application; 0 = untreated control, 100 = complete kill
Outline: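 Rice at 2-leaf stage is transplanted into flooded puddled soil and treated by water application 4 days later, at a predetermined active-ingredient dose. Crop injury is rated visually as growth control (0–100%) 21 days after treatment.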

[22] = test system: barnyardgrass (Echinochiloa oryzicola: ECHOR); experiment: Test Example 3 water application herbicidal activity (paddy), ECHOR; conditions: 63 g a.i./ha, water application under submerged condition at 0.5 leaf stage, visually observed 14th day after application; 0 = untreated control, 100 = complete kill
Outline: as §4

[23] = test system: soybean (Glycine max Merr.), GLXMA; experiment: Test Example 2 post-emergence (foliage treatment) herbicidal activity, GLXMA; conditions: 63 g a.i./ha
Outline: as §1

[24] = test system: crabgrass (Digitaria sanguinalis L.): DIGSA; experiment: Test Example 1 pre-emergence herbicidal activity, DIGSA; conditions: Rate 63 g a.i./ha, visually observed 20th to 23rd day after application
Outline: as §2

Row | SMILES | growth controlling degree, ABUTH [1] [%] | Pre-emergence Herbicidal Activity TRZAX (growth controlling degree) [2] [%] | growth controlling degree, ORYSA [3] [%] | growth controlling degree, SETVI [4] [%] | growth controlling degree, TRZAX [5] [%] | Pre-emergence Herbicidal Activity ORYSA (growth controlling degree) [6] [%] | Pre-emergence Herbicidal Activity GLXMA (growth controlling degree) [7] [%] | Pre-emergence Herbicidal Activity SIDSP (growth controlling degree) [8] [%] | growth controlling degree, AMARE [9] [%] | Pre-emergence Herbicidal Activity SETVI (growth controlling degree) [10] [%] | Pre-emergence Herbicidal Activity ECHCG (growth controlling degree) [11] [%] | Pre-emergence Herbicidal Activity ZEAMX (growth controlling degree) [12] [%] | Pre-emergence Herbicidal Activity ABUTH (growth controlling degree) [13] [%] | Pre-emergence Herbicidal Activity AMARE (growth controlling degree) [14] [%] | growth controlling degree, SIDSP [15] [%] | growth controlling degrees (%) SCPJO [16] [%] | growth controlling degree, ECHCO [17] [%] | growth controlling degree, ZEAMX [18] [%] | growth controlling degrees (%) SAGPY [19] [%] | growth controlling degree, DIGSP [20] [%] | further results
1 | COc1c(Cl)cc(F)c(-c2nn(C)c(OC(F)F)c2Cl)c1NC(=O)c1ccccc1C [Compound 1-24] | 100 | 20 | 98 | 100 | 50 | 60 | 10 | 100 | 100 | 100 | 95 | 10 | 100 | 100 | 100 | 80 | 100 | 90 | 90 | 98 | growth controlling degrees (%) ORYSA [21]: 60%; growth controlling degrees (%) ECHOR [22]: 100%; growth controlling degree, GLXMA [23]: 100%; Pre-emergence Herbicidal Activity DIGSP (growth controlling degree) [24]: 100%
2 | COc1ccc(C(=O)Nc2c(OC)c(Cl)cc(F)c2-c2nn(C)c(OC(F)F)c2Cl)cc1 [Compound 1-29] | 95 | 10 | 80 | 100 | 50 | 40 | 20 | 100 | 100 | 100 | 80 | 20 | 100 | 100 | 100 | 50 | 100 | 60 | 60 | 100 | growth controlling degrees (%) ORYSA [21]: 50%; growth controlling degrees (%) ECHOR [22]: 100%; growth controlling degree, GLXMA [23]: 100%; Pre-emergence Herbicidal Activity DIGSP (growth controlling degree) [24]: 100%
3 | COc1ccc(COC(=O)Nc2c(OC)c(Cl)cc(F)c2-c2nn(C)c(OC(F)F)c2Cl)cc1 [Compound 1-56] | 100 | 0 | 90 | 100 | 50 | 20 | 0 | 70 | 100 | 80 | 50 | 10 | 60 | 100 | 100 | 95 | 90 | 80 | 80 | 98 | growth controlling degrees (%) ORYSA [21]: 35%; growth controlling degrees (%) ECHOR [22]: 100%; growth controlling degree, GLXMA [23]: 100%; Pre-emergence Herbicidal Activity DIGSP (growth controlling degree) [24]: 70%
4 | COc1c(Cl)cc(F)c(-c2nn(C)c(OC(F)F)c2Cl)c1NC(=O)c1ccccc1F [Compound 1-22] | 100 | 10 | 95 | 100 | 40 | 50 | 50 | 100 | 100 | 100 | 80 | 20 | 100 | 100 | 100 | 95 | 100 | 90 | 98 | 100 | growth controlling degrees (%) ORYSA [21]: 40%; growth controlling degrees (%) ECHOR [22]: 100%; growth controlling degree, GLXMA [23]: 98%; Pre-emergence Herbicidal Activity DIGSP (growth controlling degree) [24]: 100%
5 | COc1c(Cl)cc(F)c(-c2nn(C)c(OC(F)F)c2Cl)c1NC(=O)/C=C/c1ccccc1 [Compound 1-31] | 100 | 10 | 60 | 95 | 20 | 50 | 10 | 100 | 100 | 100 | 80 | 10 | 100 | 100 | 100 | 60 | 80 | 40 | 95 | 80 | growth controlling degrees (%) ORYSA [21]: 40%; growth controlling degrees (%) ECHOR [22]: 100%; growth controlling degree, GLXMA [23]: 60%; Pre-emergence Herbicidal Activity DIGSP (growth controlling degree) [24]: 100%
